Counter-ions that a name gives are not always drawn.
tested on: PRKACA-PRKAR2A interaction (SmBiT-PRKACA / LgBiT-PRKAR2A), protein kinase A; set-up: NanoLuc complementation counter-screen in cell extract, PRKACA with PRKAR2A, loss of luminescence, detects NanoLuc interference; conditions: 0.5 h, 20 µM; inhibitor

| Compound | Inh (PKA) |
| --- | --- |
| COc1ccc2c(O[C@@H]3C[C@H]4C(=O)N[C@]5(C(=O)NS(=O)(=O)C6CC6)C[C@H]5/C=C\CCCCN(C)C(=O)[C@@H]4C3)cc(-c3nc(C(C)C)cs3)nc2c1C [UM0141629:01, Simeprevir] | 16.13 |
| Cc1cc(N2CCN([C@@H]3CN[C@H](C(=O)N4CCSC4)C3)CC2)n(-c2ccccc2)n1 [UM0141637:01, Teneligliptin hydrobromide] | -1.766% |
| Cn1c(COP(=O)(NCCBr)NCCBr)cnc1[N+](=O)[O-] [UM0141638:01, TH-302] | 1.841% |

same assay, conditions: counter-screen for NanoLuc interference, 0.5 h, 20 µM, inhibitor, Inh (PKA)

| Inh (PKA) [%] | Compound |
| --- | --- |
| 28.19 | N#CC[C@H](C1CCCC1)n1cc(-c2ncnc3[nH]ccc23)cn1 [UM0141622:01, Ruxolitinib phosphate] |
| 11.73 | O=C(Nc1ccc2[nH]nc(-c3ccncc3)c2c1)[C@@H]1CCN(CC(=O)N2CCN(c3ccc(-c4ncccn4)cc3)CC2)C1 [UM0141626:01, SCH772984] |
| -0.5342 | CCCc1nn(C)c2c(=O)[nH]c(-c3cc(S(=O)(=O)N4CCN(C)CC4)ccc3OCC)nc12 [UM0141628:01, Sildenafil] |
| 0.152 | N[C@@H](CC(=O)N1CCn2c(nnc2C(F)(F)F)C1)Cc1cc(F)c(F)cc1F [UM0141674:01, Sitagliptin phosphate monohydrate] |

The remaining lines, values behind:

| Compound | Inh (PKA) [%] |
| --- | --- |
| CNC(=O)c1cc(Oc2ccc(NC(=O)Nc3ccc(Cl)c(C(F)(F)F)c3)c(F)c2)ccn1 [UM0141611:01, Regorafenib monohydrate] | 6.023 |
| CNC(=O)c1cc(Oc2ccc(NC(=O)Nc3ccc(Cl)c(C(F)(F)F)c3)c(F)c2)ccn1 [UM0141611:02, Regorafenib] | 5.988 |
| CC(C)Cc1ccc([C@@H](C)C(=O)NS(C)(=O)=O)cc1 [UM0141612:01, Reparixin] | 5.153 |
| CC(C)Cc1ccc([C@@H](C)C(=O)NS(C)(=O)=O)cc1 [UM0141612:02, Reparixin L-lysine salt] | 7.24 |
| CCN(C)C(=O)Oc1cccc([C@H](C)N(C)C)c1 [UM0141620:01, Rivastigmine] | 1.357 |

same assay, conditions: counter-screen for NanoLuc interference; 0.5 h, 20 µM; inhibitor

| Inh (PKA) [%] | Compound |
| --- | --- |
| 2.359 | Cc1cccc(-c2[nH]ncc2-c2ccc3ncccc3n2)n1 [UM0141613:01, RepSox] |
| 32.72 | c1nc2c(NC3CCCCC3)nc(Nc3ccc(N4CCOCC4)cc3)nc2[nH]1 [UM0141614:01, Reversine] |
| 30.56 | Cc1cc(/C=C/C#N)cc(C)c1Nc1ccnc(Nc2ccc(C#N)cc2)n1 [UM0141618:01, Rilpivirine] |
| 2.487 | COC(=O)N(C)c1c(N)nc(-c2nn(Cc3ccccc3F)c3ncccc23)nc1N [UM0141619:01, Riociguat] |
| -11 | O=C(NCc1cccc(O)c1)Nc1nc(-c2ccncc2)cs1 [UM0141621:01, RKI-1447] |
| 9.291 | CC(C)(C)NC(=O)[C@@H]1C[C@@H]2CCCC[C@@H]2CN1C[C@@H](O)[C@H](Cc1ccccc1)NC(=O)[C@H](CC(N)=O)NC(=O)c1ccc2ccccc2n1 [UM0141624:01, Saquinavir mesylate] |
| 17.29 | COc1nccc(-c2c(-c3ccc(F)cc3)ncn2[C@H]2CC[C@H](O)CC2)n1 [UM0141625:01, SB 239063] |
| 4.073 | O=C1c2ccccc2C(=O)c2oc(-c3ccccc3)nc21 [UM0141630:01, SJB2-043] |
| 17.25 | O=C1c2ccc(Nc3ccc(F)cc3F)cc2CCc2ccc(OC[C@H](O)CO)cc21 [UM0141631:01, Skepinone-L] |
| 49.23 | CC(C)NC(=O)COc1cccc(-c2nc(Nc3ccc4[nH]ncc4c3)c3ccccc3n2)c1 [UM0141632:01, SLx-2119] |
| 47.57 | CCOC(=O)C1=CCCC[C@H]1S(=O)(=O)Nc1ccc(F)cc1Cl [UM0141634:01, TAK-242] |
| 0.165 | N=C1CCCN1Cc1[nH]c(=O)[nH]c(=O)c1Cl [UM0141639:01, Tipiracil hydrochloride] |
| -0.04176 | Cn1c(=O)cc(N2CCC[C@@H](N)C2)n(Cc2cc(F)ccc2C#N)c1=O [UM0141640:01, Trelagliptin] |
| 12.61 | Cc1ccc(-c2csc3ncnc(SCCC(=O)O)c23)cc1 [UM0141643:01, TTP 22] |
| 14.62 | Cc1cnc(Nc2ccc(F)cc2Cl)nc1-c1c[nH]c(C(=O)N[C@H](CO)c2cccc(Cl)c2)c1 [UM0141646:01, VX-11e] |
| -3.897 | O=C(Nc1ccc(-c2ccnc(Nc3ccc(N4CCOCC4)cc3)n2)cc1)C1CCCN1 (centres unmarked) [UM0141648:01, XL019] |
| 43.07 | CC(C)c1cc(CNc2nc(Nc3cc(C4CC4)[nH]n3)cc(N3CCN(C)CC3)n2)on1 [UM0141649:01, XL228] |
| 18.58 | CCOc1cc(C(=O)N2CCC(N3CCN(C)CC3)CC2)ccc1Nc1ncc2c(n1)N(C1CCCC1)c1ccccc1C(=O)N2C [UM0141651:01, XMD17-109] |
| 14.04 | CCOc1cc(N2CCC(O)CC2)ccc1Nc1ncc2c(n1)N(C)c1ccccc1C(=O)N2C [UM0141652:01, XMD8-92] |
| 0.673 | C[C@]1(c2nc3c(C(N)=O)cccc3[nH]2)CCCN1 [UM0141654:01, Veliparib dihydrochloride] |
| 21.79 | N[C@@H]1CCCN(c2c(/C=C3\SC(=O)NC3=O)cccc2-c2ccccc2)C1 [UM0141655:01, AZD1208] |
| 5.084 | O=C(O)CC[C@H]1CC[C@@](c2cc(F)ccc2F)(S(=O)(=O)c2ccc(Cl)cc2)CC1 [UM0141661:01, MK-0752] |
| 25.28 | NC(=O)[C@@H](CCC(F)(F)F)N(Cc1ccc(-c2ncon2)cc1F)S(=O)(=O)c1ccc(Cl)cc1 [UM0141668:01, BMS-708163 (Avagacestat)] |
| -1.62 | C[C@H](NC(=O)CCC(F)(F)F)C(=O)N[C@@H]1C(=O)N(CCO)c2ncccc2-c2ccccc21 [UM0141669:01, LY3039478] |
| 3.048 | CCC[C@H](NC(=O)[C@@H]1[C@H]2CCC[C@H]2CN1C(=O)[C@@H](NC(=O)[C@@H](NC(=O)c1cnccn1)C1CCCCC1)C(C)(C)C)C(=O)C(=O)NC1CC1 [UM0141671:01, Telaprevir (VX-950)] |
| 1.695 | CC#CCn1c(N2CCC[C@@H](N)C2)nc2c1c(=O)n(Cc1nc(C)c3ccccc3n1)c(=O)n2C [UM0141673:01, Linagliptin (BI-1356)] |

Continued, molecule first:

| Compound | Inh (PKA) [%] |
| --- | --- |
| CCOc1cc(C(C)(C)C)ccc1C1=N[C@@](C)(c2ccc(Cl)cc2)[C@@](C)(c2ccc(Cl)cc2)N1C(=O)N1CCN(CCCS(C)(=O)=O)CC1 [UM0141616:01, RG7112] | 18.3 |
| COc1cc(C(=O)O)ccc1NC(=O)[C@@H]1N[C@@H](CC(C)(C)C)[C@](C#N)(c2ccc(Cl)cc2F)[C@H]1c1cccc(Cl)c1F [UM0141617:01, RG7388] | 51.62 |
| CC(C)=CCC/C(C)=C/CC/C(C)=C/CSc1ccccc1C(=O)O [UM0141623:01, Salirasib] | 61.94 |
| CCOc1ccc(Oc2ccc(OCc3cc(F)ccc3F)cc2)c(N)c1 [UM0141627:01, SEA0400] | 3.449 |
| Cc1c[nH]c(/C=C2\C(=O)Nc3ccccc32)c1CCC(=O)O [UM0141633:01, SU 5402] | 46.56 |
| COc1cccc2c1c(O)c(C(=O)N(C)c1ccc(C(F)(F)F)cc1)c(=O)n2C [UM0141635:01, Tasquinimod] | 2.103 |
| Fc1ccccc1-c1nc2ccn(Cc3ccc(-c4ccc(C(F)(F)F)cc4C(F)(F)F)nn3)cc-2n1 [UM0141636:01, Tegobuvir] | 1.649 |
| CC(C)[C@]12O[C@H]1[C@@H]1O[C@]13[C@]1(O[C@H]1C[C@H]1C4=C(CC[C@@]13C)C(=O)OC4)[C@@H]2O [UM0141641:01, Triptolide] | 1.248 |
| CCC1=C[C@@H]2CN(C1)Cc1c([nH]c3ccccc13)[C@@](C(=O)OC)(c1cc3c(cc1OC)N(C)[C@H]1[C@@](O)(C(=O)OC)[C@H](OC(C)=O)[C@]4(CC)C=CCN5CC[C@]31[C@@H]54)C2 [UM0141644:01, Vinorelbine ditartrate] | 3.937 |
| COc1ccc(C(=O)CC2(O)C(=O)Nc3c(Cl)ccc(Cl)c32)cc1 (centres unmarked) [UM0141653:01, YK-4-279] | 4.248 |
| CC(=O)O/N=C1\C(=O)N(Cc2cc(Cl)ccc2Cl)c2ccc(Cl)cc21 [UM0141658:01, LDN 57444] | 84.34 |
| Cc1ccc(/C=C2\CNC/C(=C\c3ccc(C)cc3)C2=O)cc1 [UM0141659:01, NSC 632839 hydrochloride] | 12.94 |
| CC(C)(C(=O)NCC(F)(F)C(F)(F)F)C(=O)N[C@@H]1C(=O)Nc2ccccc2-c2ccccc21 [UM0141660:01, RO4929097] | 10.15 |
| CC(C)C[C@H](NC(=O)CNC(=O)c1cc(Cl)ccc1Cl)B1OC(=O)C(CC(=O)O)(CC(=O)O)O1 [UM0141662:01, MLN9708] | -0.4944 |
| CC(C)C[C@H](NC(=O)CNC(=O)c1cc(Cl)ccc1Cl)B(O)O [UM0141663:01, MLN2238] | 0.9496 |
| CC(C)C[C@H](NC(=O)[C@@H](NC(=O)c1cccc(-c2ccccc2)n1)[C@@H](C)O)B(O)O [UM0141664:01, CEP-18770] | 2.205 |
| COc1ccc(C[C@H](NC(=O)[C@H](C)NC(=O)CN2CCOCC2)C(=O)N[C@@H](Cc2ccccc2)C(=O)[C@@]2(C)CO2)cc1 [UM0141665:01, ONX-0914 (PR-957)] | 2.946 |
| C[C@H](NC(=O)Cc1cc(F)cc(F)c1)C(=O)N[C@@H]1C(=O)N(C)c2ccccc2-c2ccccc21 [UM0141666:01, YO-01027 (Dibenzazepine, DBZ)] | 4.42 |
| C[C@H](NC(=O)[C@@H](O)c1cc(F)cc(F)c1)C(=O)N[C@@H]1C(=O)N(C)c2ccccc2-c2ccccc21 [UM0141667:01, LY-411575] | 13.09 |
| CC(C)(C)OC(=O)N[C@H]1CCCCC/C=C\[C@@H]2C[C@@]2(C(=O)NS(=O)(=O)C2CC2)NC(=O)[C@@H]2C[C@@H](OC(=O)N3Cc4cccc(F)c4C3)CN2C1=O [UM0141670:01, Danoprevir (RG7227)] | 3.662 |
| CC(C)(C)C#Cc1cc(N(C(=O)[C@H]2CC[C@H](C)CC2)[C@H]2CC[C@H](O)CC2)c(C(=O)O)s1 [UM0141672:01, VX-222 (VCH-222, Lomibuvir)] | 8.385 |

Source: paper PMC9995496, “A screen for MeCP2-TBL1 interaction inhibitors using a luminescence-based assay” (Scientific Reports, 2023)
